In US12663426B2, “Method and composition for measurement of nitric oxide” (The University of Chicago, priority 2019, dated 2026):
Read-outs that look alike come from different tables or passages of the source.

What was measured:
[1] = Decomposition / NO release of DEA NONOate; assay type: physicochemical
Description: (§1) Sub-cellular nitric oxide quantification. […] (FIG. 16).
Additionally, DEA-NONOate concentration follows first order decay and can be described with initial DEA-NONOate concentration (indicated by [NONOate]0).
Next, in order to measure the relative activities of NOS3 at the plasma membrane and the TGN, a method was developed to quantify sub-cellular NO generated due to NOS3 activity. […] As the effective concentration of NO at any time, [NO]eff, changes with time, NOS3 activity is best quantified by the rate of NO production. Therefore, the decomposition rate constant (k1 sec^−1) of DEA-NONOate was first measured from its UV absorbance at 250 nm, to obtain [NO]eff over time in solution for fixed DEA-NONOate concentrations (FIG. 17a, Methods) (Ramamurthi, A. & Lewis, R. S. Measurement and modeling of nitric oxide release rates for nitric oxide donors. Chem. Res. Toxicol. 10, 408-413 (1997)). […]
In vitro fluorescence measurements: All fluorescence studies were carried out on a Fluoromax-4 (Horiba Scientific, Japan) spectrophotometer. […] Fluorescence emission spectra were collected in the range of 560-620 nm (slit width=2 nm) for DAR and 655-700 nm (slit width=2 nm) for A647N. […] Fluorescence signal from NOckout. […] was recorded sequentially in the DAR (G) and A647N (R) channels before and after the addition of DEANONOate (30 μM) at timed intervals (30 s). […]

[2] = 37° C., 100 mM phosphate buffer (pH 7.4); cited from earlier work
[3] = target: T1, NOS2 (Mus musculus, UniProt P29477); test: In cellulo specificity of NOckout to NO in LPS primed J774A.1 cells; assay type: cell-based; settings: J774 cells, LPS; VAS2870 10 μM, ABAH 50 μM
T1 construct: J774A.1 cells were treated with 1 μg/mL LPS for 12 h prior to the addition of NOckout; endogenous in cells; host or cells: J774A.1 macrophages primed with LPS
Protocol: Pharmacological inhibition: Pharmacological inhibition of different enzymes were performed by employing known inhibitors. […] Cells were bathed in inhibitors 1 h prior to the addition of NOckout probes during the specificity experiment performed in J774A.1 cells.
In cellulo specificity of NOckout to NO: In cellulo specificity of the NOckout probe towards NO^− was validated in J774A.1 cells. […] J774A.1 cells were treated with 1 μg/mL LPS for 12 h prior to the addition of NOckout (500 nM in HBSS) either in the presence or in absence of specific inhibitors. LPS addition was employed to induce the expression of NOS2NOX and MPO. […] After 90 minutes of incubation with the NOckout culture media was removed from the cells and three washes were performed using HBSS to remove extracellular NOckout before proceeding to the fluorescence imaging. […]
The in-cell specificity of NOckout can be evaluated by measuring the contribution of the reactive species produced by NOX, MPO and NOS2 to the observed fold change in G/R ratio upon LPS stimulation. […] As NOS2 activity is not pan-endosomal, specificity is given by quantifying the percentage of endosomes that show G/R values higher than the mean G/R value in endosomes of unstimulated, NOS2 inhibited cells, as the latter corresponds to basal endosomal NO levels (FIG. 6c).

[4] = tested on: NOS3; test: Sub-cellular nitric oxide quantification (rate of NO production, in-cell calibration); assay type: cell-based; settings: T-47D cells, 1 μM thapsigargin
Protocol: as §1
After characterizing NO releasing profile of DEA NONOate, cellular NO production was compared to NO released from DEA-NONOate. […] As expected G/B intensity increases over time and the rate of increase is proportional to DEA-NONOate concentration. Then 1 μM thapsigargin was added to get the initial rate of NO production at the plasma membrane.
Note this only applies to the initial phase of DAR activation where [DAR] can be considered as constant. From the predicted [NO] from DEA-NONOate, the tested concentration of NONOate, the first 30 s [NO] increases with t. […]
Using the calibration curve, the initial G/B rates from thapsigargin treated cells is plugged in and the plasma membrane NO production was measured to be 576±61 nM/s (FIG. 3e).
Next, in order to measure the relative activities of NOS3 at the plasma membrane and the TGN, a method was developed to quantify sub-cellular NO generated due to NOS3 activity. […] As the effective concentration of NO at any time, [NO]eff, changes with time, NOS3 activity is best quantified by the rate of NO production. […]
An in-cell calibration protocol was developed to measure the rate of NO production for various concentrations of DEA-NONOate using NOckout probes. […] NOckout^PM labeled cells was then treated with 1 μM thapsigargin and measured the rate of NO production given by the increasing G/B ratio. […]

[5] = target: T2, murine TLR-9 (Mus musculus, UniProt Q9EQU3); test: Endosomal NO in primary mouse microglia with NOckout^mCpG; assay type: cell-based; settings: primary microglia, versus NOckout^mCpG, n=100 endosomes
T2 construct: endogenous in cells; host or cells: primary microglia from C57BL/6 mice
T2 sequence (Q9EQU3 26-1032): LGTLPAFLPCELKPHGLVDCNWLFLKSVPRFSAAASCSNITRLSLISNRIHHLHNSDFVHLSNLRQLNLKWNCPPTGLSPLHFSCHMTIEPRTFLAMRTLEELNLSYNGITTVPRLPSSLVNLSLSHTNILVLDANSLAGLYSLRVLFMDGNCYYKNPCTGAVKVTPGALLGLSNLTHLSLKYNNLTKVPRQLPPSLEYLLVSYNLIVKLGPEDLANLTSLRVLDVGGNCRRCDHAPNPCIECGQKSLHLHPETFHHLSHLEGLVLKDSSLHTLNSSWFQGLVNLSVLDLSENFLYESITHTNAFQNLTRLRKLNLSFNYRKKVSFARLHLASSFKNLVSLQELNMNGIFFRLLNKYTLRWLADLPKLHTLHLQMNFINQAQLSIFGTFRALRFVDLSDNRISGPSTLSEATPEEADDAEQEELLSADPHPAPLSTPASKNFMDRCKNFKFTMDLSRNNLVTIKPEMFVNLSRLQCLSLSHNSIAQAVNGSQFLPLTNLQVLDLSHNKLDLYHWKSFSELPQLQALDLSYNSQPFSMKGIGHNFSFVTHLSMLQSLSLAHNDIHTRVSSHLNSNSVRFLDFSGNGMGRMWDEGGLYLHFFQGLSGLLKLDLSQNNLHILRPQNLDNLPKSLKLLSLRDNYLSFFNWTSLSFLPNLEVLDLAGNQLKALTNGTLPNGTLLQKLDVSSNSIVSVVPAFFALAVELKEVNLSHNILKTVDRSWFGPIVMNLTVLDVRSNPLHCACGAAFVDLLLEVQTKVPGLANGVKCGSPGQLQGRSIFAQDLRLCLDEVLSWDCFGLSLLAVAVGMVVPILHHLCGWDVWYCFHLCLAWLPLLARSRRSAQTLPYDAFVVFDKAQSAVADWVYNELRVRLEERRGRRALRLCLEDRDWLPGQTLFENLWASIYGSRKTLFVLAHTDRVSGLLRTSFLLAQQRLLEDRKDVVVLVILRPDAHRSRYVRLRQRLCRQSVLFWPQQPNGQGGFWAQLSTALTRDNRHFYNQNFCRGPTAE
Description: Image analysis: A MATLAB based program called Findosome was used to calculate the (G/R) values of individual endosomes from the acquired images. Maximum Z-projected images created using Fiji (NIH) were fed to Findosome to pick endosomal compartments as ROI corresponding to individual endosomes based on the A647 channel intensity. For each ROI, the program calculates fluorescence intensities both in the normalizing channel (A647, R) as well as in the DAR (G) channel. The results were exported as an excel file. From the results, (G/R) value for individual endosomes can be calculated. Phagosomal (G/R) values from the zebrafish microglia are calculated using Fiji software. Images were imported to Fiji and maximum Z-projected images were created. ROI were manually drawn around clearly identifiable phagosomes using the normalizing channel A647 intensity. Fluorescence intensities in A647 and DAR channels were calculated. G/R values are either represented as heat map images using Fiji or as bar graph using Origin software. Intracellular measurements of (G/R) values was performed in GFP colocalized microglia. For (G/R) ratio quantification experiments, only those vesicles that are present in both green (G) and red (R) channels were considered. […]

[6] = tested on: TNF-α; test: TNF-α quantification by ELISA in J774A.1 cells; assay type: cell-based; settings: 500 nM, 2 h
Protocol: TNF-α Quantification: To quantify the immunogenicity NOckout probes and the corresponding immunogen alone, ELISA for TNF-α was performed in J774A.1 cells. Briefly, J774A.1 cells cultured in DMEM were incubated with 500 nM NOckout sensors, CpG nucleotides, RNA, or LPS at 37° C. for 2 h. Postincubation 100 μL of extracellular medium from the culture was used to perform TNF-α quantification using ELISA kit (Cayman, catalog number 500850) according to manufacturers instructions. The calibration curve for TNF-α was generated using recombinant. TNF-α as per the vendor's instructions.
We treated J774A.1 cells with each PAMP motif, for example mCpG, zCpG, RNA, or iRNA and their corresponding NOckout display vairent and quantified TNFα in the extracellular milieu by enzyme-linked immunisorbent assay (ELISA) (FIG. 47). […] This is because, beyond 2 h in cell culture, the probe is degraded in lysosomes, likely by DNase II, NOckout probes therefore can reliably report on endosomal NO levels only up to 2 h postinternalization (FIG. 45).

CCN(CC)/[N+]([O-])=N/O.CCNCC [DEA NONOate, Diethylamine NONOate]
k1, decomposition rate constant ([1]; calculated from UV absorption at 250 nm): 0.00131 s⁻¹ | half-life ([1]; pH 7.4 at 25° C.): about 9 min | half-life [2]: 2 min

c1ccc(Cn2nnc3c(Sc4nc5ccccc5o4)ncnc32)cc1 [VAS2870]
NO signal of NOckout with inhibitor [3]: did not reduce NO signal

C/C=C(/C)C(=O)O[C@H]1C(C)=C2[C@H]([C@@H]1OC(=O)CCCCCCC)[C@@](C)(OC(C)=O)C[C@H](OC(=O)CCC)[C@@]1(O)[C@H]2OC(=O)[C@@]1(C)O [thapsigargin]
rate of NO production at the plasma membrane ([4]; NOckout^PM): 576 ± 61 nM/s | initial rate of NO production at the TGN ([4]; NOckout^TGN): 74 ± 41 nM/s

NOckout^mGpC: control of NOckout^mCpG with non-immunostimulatory GpC motifs (TGCTGTCTGGTGTGCAGTGTTGATTTTCCATGAGCTTCCTGACCTT; DNA nanodevice strand, phosphorothioate ODN overhang and dyes, pattern not given here)
reduction of NO-rich endosomes [5]: 40% | TNF-α in the extracellular milieu [6]: dramatic reduction in TNF-α levels
